Reference: patent publication US11584714B2 (priority 2018, dated 2023)
pKi: −log10 of the molar value. Read-outs that look alike come from different tables or passages of the source.

Columns and labels:
Thrombin = Thrombin (Homo sapiens (Human), UniProt P00734); assay: Thrombin inhibition (Ki); assay type: biochemical
MASP-2 = MASP-2 (Homo sapiens (Human), UniProt O00187); assay: MASP-2 inhibition (Ki); assay type: biochemical
α-chymotrypsin = α-chymotrypsin (Bos taurus (Bovine), UniProt P00766, DEL14-15/DEL147-148); settings: cited from earlier work

Sequence of MASP-2 (O00187 16-686): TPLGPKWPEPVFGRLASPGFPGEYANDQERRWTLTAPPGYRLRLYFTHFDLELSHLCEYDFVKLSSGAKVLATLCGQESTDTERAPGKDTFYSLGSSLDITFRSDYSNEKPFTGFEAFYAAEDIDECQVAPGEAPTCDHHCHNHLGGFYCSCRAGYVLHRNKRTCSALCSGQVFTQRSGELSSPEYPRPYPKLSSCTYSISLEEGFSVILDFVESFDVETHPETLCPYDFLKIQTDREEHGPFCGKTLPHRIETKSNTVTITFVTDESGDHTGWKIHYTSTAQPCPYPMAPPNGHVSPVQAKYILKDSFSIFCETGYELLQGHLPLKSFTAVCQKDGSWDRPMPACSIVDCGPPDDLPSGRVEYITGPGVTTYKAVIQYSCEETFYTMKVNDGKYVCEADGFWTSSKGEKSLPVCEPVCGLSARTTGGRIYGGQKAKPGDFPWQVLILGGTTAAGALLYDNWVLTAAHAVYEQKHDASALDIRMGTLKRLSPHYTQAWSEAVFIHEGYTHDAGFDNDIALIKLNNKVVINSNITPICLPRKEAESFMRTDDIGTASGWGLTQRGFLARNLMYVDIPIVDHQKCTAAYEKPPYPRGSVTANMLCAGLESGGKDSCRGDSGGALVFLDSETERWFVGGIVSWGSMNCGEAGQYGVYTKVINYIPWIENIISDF

| Compound | pKi (Thrombin; read-out: Thrombin Ki) | pKi (MASP-2) | Thrombin Ki (μM) (Thrombin) | pKi (α-chymotrypsin) | pKi (Thrombin) |
| --- | --- | --- | --- | --- | --- |
| COc1ccc(/C=C2\N=C(c3ccccc3OC)OC2=O)cc1OC [compound 3] | > 5.00 | 4.00 to 4.60 | – | – | – |
| Cc1c(/N=C/c2ccc(OC(=O)c3ccco3)cc2)c(=O)n(-c2ccccc2)n1C [compound 34] | 4.00 to 4.60 | > 5.00 | – | – | – |
| O=C(O)C1Nc2c(O)cc(Cl)c([N+](=O)[O-])c2C2C=CCC12 (centres unmarked) [compound 22] | – | 4.60 to 5.00 | No Activity | – | – |
| COc1ccccc1C1=N/C(=C\c2cc(OC)c(OC)c(OC)c2)C(=O)O1 [compound 4] | 4.00 to 4.60 | > 5.00 | – | – | – |
| COc1cc(/C=N/NC(=O)Cc2nnc(N)s2)ccc1OC(=O)c1ccco1 [compound 31] | – | > 5.00 | No activity | – | – |
| O=c1oc(-c2cccs2)nc2ccccc12 [compound 10] | 4.00 to 4.60 | > 5.00 | – | – | – |
| O=Cc1ccc(OC(=O)c2ccco2)cc1 [compound 21] | > 5.00 | > 5.00 | – | – | – |
| CN(C(=O)c1cc2ccccc2cc1C(=O)C(c1cccc2ccccc12)P(=O)(O)O)C1CCN(C(=O)c2ccccc2)CC1 (centres unmarked) [compound 51] | – | 4.60 to 5.00 | No activity | – | – |
| Nc1cc(OC(=O)c2ccco2)nn1S(=O)(=O)c1ccc(F)cc1 [compound 44] | 4.00 to 4.60 | > 5.00 | – | – | – |
| COC(=O)c1cn(C(=O)c2cc(OC)cc(OC)c2)nc1N [compound 24] | 4.60 to 5.00 | > 5.00 | – | – | – |
| O=C(NNC(=O)c1cc2ccccc2cc1O)c1ccco1 [compound 7] | > 5.00 | > 5.00 | – | – | – |
| Cc1sc2nc(-c3ccccc3F)oc(=O)c2c1C [compound 42] | 4.00 to 4.60 | > 5.00 | – | – | – |
| O=C(c1cccc2ccccc12)n1cccn1 [compound 32] | – | > 5.00 | No activity | – | – |
| CN(C)C(=S)Nc1ccccc1C(=O)O [compound 25] | – | 4.00 to 4.60 | No activity | – | – |
| CCc1cc2c(=O)oc(-c3ccccc3C)nc2s1 [compound 43] | 4.00 to 4.60 | > 5.00 | – | – | – |
| COc1ccc(S(=O)(=O)n2nc(OC(=O)c3ccco3)cc2N)cc1 [compound 40] | > 5.00 | > 5.00 | – | – | – |
| Cc1ccc(/C=C2\N=C(c3ccccc3F)OC2=O)o1 [compound 2] | 4.00 to 4.60 | > 5.00 | – | – | – |

| Compound | pKi (Thrombin; read-out: Thrombin Ki) | pKi (MASP-2) | Thrombin Ki (μM) (Thrombin) | pKi (α-chymotrypsin) | pKi (Thrombin) |
| --- | --- | --- | --- | --- | --- |
| N=C(N)c1ccc2ccccc2c1 [compound 53] | 4.60 to 5.00 | > 5.00 | – | – | – |
| O=C(Oc1ccc([N+](=O)[O-])cc1)c1ccc(Br)o1 [compound 20] | – | > 5.00 | No Activity | – | – |
| O=C1OC(/C=C/c2ccccc2)=NC/1=C\c1ccco1 [compound 6] | 4.00 to 4.60 | > 5.00 | – | – | – |
| Cc1ccc(S(=O)(=O)n2nc(OC(=O)c3ccco3)cc2N)cc1 [compound 39] | 4.60 to 5.00 | > 5.00 | – | – | – |
| MeO-Suc-Ala-Ala-ProboroPhe-OH | – | – | – | 9.80 | – |
| Nc1nc2ccccc2[nH]1 [compound 46] | – | 4.00 to 4.60 | No activity | – | – |
| Cc1ccccc1C1=N/C(=C\c2ccco2)C(=O)O1 [compound 1] | > 5.00 | > 5.00 | – | – | – |
| O=C(O)c1ccc2c(c1)C1C=CCC1C(C(=O)O)N2 (centres unmarked) [compound 28] | – | 4.00 to 4.60 | No activity | – | – |
| O=c1[nH]c2ccccc2c(=O)o1 [compound 26] | – | > 5.00 | – | – | 4.00 to 4.60 |
| O=C1NC(=S)NC(=O)C1=C/C=C/c1ccco1 [compound 29] | 4.00 to 4.60 | > 5.00 | – | – | – |
| O=C(Oc1cccc([N+](=O)[O-])c1)c1ccco1 [compound 27] | 4.00 to 4.60 | > 5.00 | – | – | – |
| COc1cccc2c1NC(C(=O)O)C1CC=CC21 (centres unmarked) [compound 15] | – | 4.00 to 4.60 | No activity | – | – |
| Cc1c(C(=O)Nc2ccccc2C(=O)O)cccc1[N+](=O)[O-] [compound 9] | > 5.00 | > 5.00 | – | – | – |
| N=C(N)c1ccc(N)cc1 [compound 47] | – | 4.00 to 4.60 | No activity | – | – |
| O=c1oc(-c2ccccc2[N+](=O)[O-])nc2ccccc12 [compound 14] | > 5.00 | > 5.00 | – | – | – |
| CC(=O)c1ccc(OC(=O)c2ccco2)cc1 [compound 41] | – | > 5.00 | No activity | – | – |
